Consider 1 molecule from paper PMC12320245 (International Journal of Biological Sciences, 2025).

For data set [1], the system named is astrocytes. In words: Lysosomal zinc (FluoZin-3 with LysoTracker). It is filed as cell-based. As to conditions: 10 μM AMX for 30 minutes.
In another data set the test system is IκB kinase ε (IKK-ε). The arrangement: method as in PMID 23396208. As to conditions: cited from earlier work.
The test system of data set [2] is hippocampus of TBI rats. In words: Controlled cortical impact TBI: hippocampal cAMP ELISA. The data set is classed as in vivo. To be noted: rat, 3 hours post-TBI, AMX 100 mg/kg i.p. The protocol:
(§1) This study used male Sprague-Dawley rats weighing 300-350 g and aged 8 weeks, obtained from DBL Co. (Chungcheongbuk-do, Republic of Korea). The rats were housed in a controlled environment with a temperature of 20 ± 2 °C, a relative humidity of 55 ± 5%, and a 12-hour light/dark cycle. They were provided ad libitum access to food and water. To minimize stress associated with transportation, animals underwent a one-week acclimatization period before the start of the experiments. All experimental procedures were conducted in compliance with the guidelines of the National Institutes of Health for the care and use of laboratory animals and were approved by the Hallym University Institutional Animal Care and Use Committee (protocol # Hallym 2022-23, approved on July 15, 2022). This manuscript follows the principles outlined in the Animal research: reporting in vivo experiments (ARRIVE) guidelines.
A controlled cortical impact (CCI) model was used to induce TBI in rats. Animals were anesthetized with 1-1.5% isoflurane in a 30:70 oxygen-to-nitrous oxide mixture and securely positioned in a stereotaxic frame. A 3 mm craniotomy was performed using a portable drill at a site 2.8 mm lateral to the midline and 3.0 mm posterior to Bregma. […]

The test system of another data set is TBI rats. As to the kind of experiment: Controlled cortical impact TBI: modified neurological severity score. It is filed as in vivo, rat. As for the experimental part:
as §1
A controlled cortical impact (CCI) model was used to induce TBI in rats. Animals were anesthetized with 1-1.5% isoflurane in a 30:70 oxygen-to-nitrous oxide mixture and securely positioned in a stereotaxic frame. […]
The mNSS provides a quantitative measure of neurological function, with scores ranging from 0 (normal function) to 18 (severe dysfunction). The test evaluates multiple parameters to comprehensively assess neurological deficits: 1) Tail Suspension (3 points)—The rat's ability to be lifted by its tail is assessed, with higher scores indicating increased difficulty or inability to lift. 2) Balance and Posture (3 points)—The rat's ability to maintain proper posture and balance when placed on a flat surface is observed and scored. 3) Sensory Function ([…])—Sensory responses, including reactions to tactile or pain stimuli, are evaluated. 4) Beam Balance Test (6 points)—The rat's ability to walk on a narrow beam is assessed. […] 5) Reflexes and Abnormal Movements (4 points)—The presence or absence of reflexes, as well as abnormal behaviors or movements, are recorded and scored.

For data set [3], the system named is astrocytes. As to the kind of experiment: Lysosomal pH detection (DND-189 fluorescence). As to conditions: 10 μM AMX with 100 nM BafA1. The data set is classed as cell-based.
Another data set has as its system BV2 cells. As to conditions: NF-κB/STAT3 downregulation; cited from earlier work.
A further data set concerns PKA. In words: PKA colorimetric activity assay (test tubes). It is filed as biochemical. To be noted: 0.1-10 µM. The protocol:
PKA activity was assessed using a microplate-based kinase activity assay. Each well contained reaction buffer, a purified PKA enzyme, and test samples, followed by adding 10 μL of adenosine triphosphate (ATP) solution to initiate the reaction. Plates were incubated at 30°C for 90 minutes, before being washed four times with wash buffer to remove unbound components. Next, 25 μL each of phospho-PKA substrate antibody and horseradish peroxidase (HRP)-conjugated secondary antibody (donkey anti-rabbit IgG) were added to each well. The plates were incubated at room temperature (RT) for 60 minutes under continuous shaking to ensure uniform binding. To detect the phosphorylated substrate, 100 μL of tetramethylbenzidine (TMB) substrate was added to each well, followed by a 30-minute incubation at RT. The reaction was terminated by adding stop solution, and the absorbance was measured at 450 nm by using a microplate reader to quantify PKA activity.

For data set [4], the system named is hippocampus of TBI rats. In words: Controlled cortical impact TBI: hippocampal Western blot. The data set is classed as in vivo, rat. The protocol: as §1
A controlled cortical impact (CCI) model was used to induce TBI in rats. Animals were anesthetized with 1-1.5% isoflurane in a 30:70 oxygen-to-nitrous oxide mixture and securely positioned in a stereotaxic frame. A 3 mm craniotomy was performed using a portable drill at a site 2.8 mm lateral to the midline and 3.0 mm posterior to Bregma. TBI was induced using an Impact One™ Stereotaxic Impactor (Leica Biosystems) equipped with a 3 mm flat-tip, set to deliver an impact at a velocity of 5 m/s and a depth of 3 mm. Throughout the procedure, body temperature was maintained at 36-37.5°C using a homeothermic blanket system to prevent hypothermia. […] At designated time points (3 hours, 24 hours, or 2 weeks post-injury), animals were euthanized via transcardial perfusion with saline, followed by 4% paraformaldehyde (PFA). Brains were post-fixed in 4% PFA for 1 hour, cryoprotected in 30% sucrose, and sectioned at a 30 μm thickness using a cryostat microtome (CM1850; Leica, Wetzlar, Germany). Brain sections were stored in cryoprotectant solution at 4°C until further analysis.
Hippocampal samples were homogenized in a lysis buffer containing RIPA buffer (IBS-BR002, iNtRON, Republic of Korea), phosphatase inhibitor (Sigma, USA), and protease inhibitor (Sigma, USA). The homogenates were centrifuged at 14,000 × g for 20 minutes at 4°C, and the supernatants were collected. Protein concentrations were determined using the Bradford protein assay. For analysis, 25 μg of protein from each sample was mixed with SDS loading buffer, separated through SDS-PAGE, and transferred onto PVDF membranes. Membranes were blocked for 2 hours at room temperature with either 5% skim milk or 3% BSA to minimize nonspecific binding. Subsequently, the membranes were incubated overnight at 4°C with primary antibodies diluted in blocking buffer. The following primary antibodies were used: p-p38 MAPK (1:1000, Cell Signaling), p-eIF2α (1:1000, Cell Signaling), p-PERK (1:1000, Cell Signaling), LAMP2 (1:1000, Invitrogen), LC3B (1:1000, Invitrogen), IL-1β (1:500, Gene Tex), TNF-α (1:500, Abcam), and β-actin (1:10,000, Cell Signaling). After primary antibody incubation, membranes were washed in TBS-T (Bio-Rad) and incubated with secondary antibodies for 1 hour at room temperature. Signals were visualized using a chemiluminescence detection system and captured with a bioimaging instrument (Amersham Imager 680, Marlborough, USA).

For data set [5] the following is noted: neuroinflammation or brain injury; cited from earlier work.
Setting [6] is: hippocampus, 24 hours after TBI.
The mark [7] stands for this setting: rat hippocampus, 24 hours post-TBI.
Setting [8] is: rat hippocampus, 24 hours post-TBI, vs TBI-vehicle.

Consider `CC(C)c1ccc2oc3nc(N)c(C(=O)O)cc3c(=O)c2c1` [AMX, amlexanox], for which the “lysosomal zinc (FluoZin-3 fluorescence)” value in the data set with astrocytes [1] is given as “significant increase in zinc fluorescence within lysosomes”. Further, the “inhibition of IKK-ε” value in the data set on IκB kinase ε (IKK-ε) is “dual inhibitor”. Further, the “hippocampal cAMP levels (ELISA)” value with hippocampus of TBI rats [2] is listed as “restored cAMP levels to values comparable to sham controls”. Further, the “beam balance test of mNSS (balance control, videos)” value with TBI rats (TBI-AMX vs TBI-vehicle) is listed as “performed better”. Moreover, the ΔmNSS entry in the data set on TBI rats (between day 1 and subsequent time points, vs vehicle) is given as “greater improvements in ΔmNSS”. Besides, the mNSS scores entry with TBI rats (days 1 to 7 after TBI, daily AMX 100 mg/kg i.p., vs vehicle) is recorded as “lower mNSS scores”. Further, the “lysosomal pH (DND-189 fluorescence), reversal of BafA1 effect” value in the data set with astrocytes [3] is given as “effectively reversed BafA1-induced alkalization”. The LPS-induced microglial activation result in the data set on BV2 cells was “attenuated LPS-induced microglial activation”. Besides, the “PKA activity in test tubes” value in the data set with PKA is reported as “activates PKA”. Further, in the data set on hippocampus of TBI rats [4] (setting [6]), the “IL-1β expression (Western blot)” value was “markedly reduced the expression of both cytokines” and the “TNF-α expression (Western blot)” value is given as “markedly reduced the expression of both cytokines”. In addition, in the data set on hippocampus of TBI rats [4] (setting [7]), the LAMP2 expression result is “preserved LAMP2 and LC3B expression”; the LC3B expression entry is “preserved LAMP2 and LC3B expression”. In the data set with hippocampus of TBI rats [4] (setting [8]), the “phosphorylation of PERK” value was “significantly reduced the phosphorylation levels”, the “phosphorylation of eIF2α” value is on record as “significantly reduced the phosphorylation levels” and the “phosphorylation of p38 MAPK” value was “significantly reduced the phosphorylation levels”. Moreover, the “crossing of the BBB” value in data set [5] was “can cross the BBB under pathological conditions”.
